The test system of the test is experimental ulcerative colitis. The test can be described thus: DSS modeling and treatment of experimental ulcerative colitis in rat. It counts as in vivo, SD rat. Particulars: SASP 0.02 g/ml i.g., twice a day for 21 days. How it is done: The producing method of live bacteria preparation of Bacillus coagulans for the treatment of ulcerative colitis comprises following steps: incubating Bacillus coagulans by fermentation; drying bacteria slurry after centrifugation to obtain live bacteria powder, which is then prepared as suitable dosage forms. Ulcerative colitis is characterized in that pathological change mostly occurs at rectum and sigmoid flexure, or throughout the whole colon. A microscopic examination of colon can show mucosal blooding, edema, erosion or superficial ulcertion on affected intestine with mucus and inflammatory exudate covered thereon. Bleeding, inflammatory cell infiltration, epithelial cell decreasing, crypt collapsing and distorting, abscess formation are also often found in microscopic examination. Chronic ulcer may heal to form scar or pseudopolyp. Experimental study is to administrate dextran sodium sulfate (DSS) to SD rat by i.g. and rectal injection to induce experimental ulcerative colitis model, and then subject the modeled rat to experimental treatment with a live bacterial tablet of Bacillus coagulans, whereby the treatment effect of tablet is evaluated. The use is to apply the live bacterial tablet of Bacillus coagulans to clinically treat patients suffering from ulcerative colitis, whereby the efficacy and safety of the live bacterial preparation for UC patients is evaluated.
60 rats were kept under a sterile environment before test. Normal intestinal flora was taken from stools in the rats' anuses and incubated. 10 rats were taken as normal control and other 50 rats as experimental group. According a modified UC rat modeling method (Xiaoping Wu etc., Chinese Journal of Digestion, Vol. 23(5):305, 2003), 3% dextran sodium sulfate (DSS) solution was i.g. administrated to rats with empty stomachs (1 ml/100 g), once a day for 7 days. At the last time, 1 ml/rat of DSS was additionally injected into recta through anuses. After 7 days, stools were taken for flora analysis. 10 rats were then sacrificed and colons were removed by laparocolectomy. The wet weights of colons were measured (g/100 g body weight). The colons was fixed with formaldehyde and stained with alcian blue solution (Sino-American Biotec). The point counts of ulcer and erosion parts were observed by naked eye. Areas (cm^2) of the largest stained blue points were measured with calipers. After the confirmation of UC formation, rats were divided into 4 groups, 10 rats per group. The rats were administrated i.g. with live bacteria tablet of Bacillus coagulans(BC) (10^7 cfU/ml, 10^6 cfU/ml), 0.02 g/ml salicylazosulfapyridine (SASP) and normal saline solution (NS), respectively, twice a day for 21 days, afterwhich the stools were taken for flora analysis. Thereafter, all of the rats were sacrificed. Colon specimens were treated according to above method and corresponding indicators were determined. In addition, intestinal tissue masses were sampled to prepare 5% homogenates, which were determined for their activities of myeloperoxidase (MPO) (U/g·wet slice) with myeloperoxidase test kit (Nanjing JianCheng Bioengineering Institute) by ultraviolet spectrometry (Beijing Technical Application Institute).
The intestinal flora was incubated and analyzed as follows. Fresh stools were extruded out from rats' anuses under sterile condition before or after modeling and after treatment, respectively. […]

Marks after values point to notes of the source that are not given here.

On to `O=C(O)c1cc(/N=N/c2ccc(S(=O)(=O)Nc3ccccn3)cc2)ccc1O` [SASP, salicylazosulfapyridine], for which the “Intestinal wet weight (g/100 g body weight)” value is listed as 0.54 ± 0.05**^Δ g/100 g body weight; the “Ulcer or erosion points, Count of Points” value is on record as 2.20 ± 0.79**^ΔΔ; the “Ulcer or erosion points, area (cm^2)” value is recorded as 0.22 ± 0.18**^Δ cm^2. Also, the “Body weight (g) After treatment” value (DSS-modeled rats) turned out to be 264.00 ± 13.50 g. Under “intestinal tissue homogenate”, the “MPO activity (U/g wet weight)” value is 0.20 ± 0.10**^ΔΔ U/g wet weight.

For the origin of these results see patent US20060127381A1, “Live bacterial preparation of bacillus coagulans for the treatment of ulcerative colitis, method for producing the same and use thereof” (priority 2004, published 2006).
